Assays:
Assay type in all cases: biochemical
[1] = biological target: T1, recombinant human 17β-HSD2 (Homo sapiens, UniProt P37059); test: Inhibition of recombinant human 17β-HSD2 (estradiol to estrone conversion, HPLC/radioactivity); details: compound 1 μM; 50 nM estradiol, 1 mM NADH, 30 min RT
T1 construct: made in house; host or cells: Sd9 (Sf9) insect cells, baculovirus (Bac to Bac Expression System)
T1 sequence (P37059 1-387): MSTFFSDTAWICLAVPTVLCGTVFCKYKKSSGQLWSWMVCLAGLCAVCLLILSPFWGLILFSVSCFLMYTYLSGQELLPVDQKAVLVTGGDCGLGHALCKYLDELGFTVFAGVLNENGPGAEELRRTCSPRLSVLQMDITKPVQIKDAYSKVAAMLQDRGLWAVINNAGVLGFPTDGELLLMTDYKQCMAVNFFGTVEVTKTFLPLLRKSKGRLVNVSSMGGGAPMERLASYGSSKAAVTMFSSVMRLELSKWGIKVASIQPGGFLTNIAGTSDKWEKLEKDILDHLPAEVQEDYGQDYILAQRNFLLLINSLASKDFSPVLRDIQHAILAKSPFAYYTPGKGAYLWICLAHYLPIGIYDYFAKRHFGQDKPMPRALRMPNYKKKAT
Experimental: 17β-HSD2 production and isolation: Similarly to 173-HSD1 the Recombinant baculovirus was generated by the “Bac to Bac Expression System” (Invitrogen). Recombinant bacmid was transfected to Sd9 insect cells using “Cellfectin Reagent” (Invitrogen). 60 h later cells were harvested and supernatant were fractionated by the following protocol: • cells were dissolved into 40 ml of A-buffer (40 mM TRIS, pH8.0, 20% glycerol, 20 μM NAD, 0.4 mM PMSF, 150 mM NaCl, 0.5% dodecyl-β-maltoside+protease inhibitor cocktail) • cells were sonicated • lysate was incubated on ice for 15 min • lysate was centrifuged 5000 rpm 15 min, +4° C. • centrifugation of the supernatant 180 000 g 30 min, +4° C. • pellet was dissolved into 8 ml of A-buffer • not resuspended material was removed by centrifugation 5000 rpm 15 min, +4° C. • the clear supernatant was divided into 100 μl aliquots and were stored frozen until determination of enzymatic activity.
The amount of 173-HSD2 was analysed by immunoblotting and total protein concentration of each extract batch was determined.
Assay—Inhibition of recombinant human 17β-HSD2: Recombinant protein (4 μg/ml) was incubated in 20 mM KH2PO4 pH 8.5 with 50 nM estradiol (including 800 000 cpm/ml of ^3H-estradiol) and 1 mM NADH for 30 min at RT, in the presence of the potential inhibitor at concentrations 1 μM or 0.1 μM. Inhibitor stock solutions were prepared in DMSO. Final concentration of DMSO was adjusted to 1% in all samples. The enzyme reaction was stopped by addition of 10% trichloroacetic acid (final concentration). Samples were centrifuged in a microtiter plate at 4000 rpm for 10 min. Supernatants were applied to reverse phase HPLC on a Waters Symmetry C18 column, equipped with a Waters Sentry Guard column. Isocratic HPLC runs were performed at RT at a flow rate of1 ml/min in acetonitrile:water 48:52 as running solvent. Radioactivity was monitored in the eluate by a Scintillation Analyzer. Total radioactivity for estrone and estradiol were determined in each sample and percent conversion of estradiol to estrone was calculated according to the following formula:
% conversion=100×{(cpm estrone in sample with inhibitor)/[(cpm estradiol in sample with inhibitor)+(cpm estrone in sample with inhibitor)]}/{[(cpm estrone in sample without inhibitor)/[(cpm estradiol in sample without inhibitor)+(cpm estrone in sample without inhibitor)]}.
(§1) Percent inhibition was calculated followingly: % inhibition=100−% conversion.

[2] = test system: HSD1 enzyme that is expressed in rabbit placenta tissue; test: Inhibition of E1 to E2 conversion in rabbit placenta tissue homogenate; details: compound 100 nM, 30 nM estrone, 1 mM β-NADPH, 30 min
Experimental: The assay is based on an enzymatic reaction where HSD1 enzyme that is expressed in rabbit placenta tissue converts its natural substance estrone (E1) to estradiol (E2) in the presence of a co-factor β-NADPH.
Homogenization of rabbit placenta tissue: Weight a piece of the frozen tissue into a Precellys ck28 bead tube. Add buffer solution (20 mM KH2PO4 with 1 mM EDTA, pH 7.4) in 1:2 ratio (e.g. 300 mg of tissue:600 μl reaction buffer solution). Insert the bead tubes to homogenizer and homogenize 2×30 s. 6000 rpm.
Centrifugated 5 min., 2600 rpm at +4° C. and collect supernatant. Aliquots of homogenate are stored in −80° C.
Assay—Inhibition of E1 to E2 conversion in rabbit placenta tissue: The reaction takes place in a buffer solution (20 mM KH2PO4 with 1 mM EDTA, pH 7,4), including appropriate amount of rabbit placenta homogenate, co-factor (1 mM β-NADPH), Substrate (30 nM estrone), labelled substrate as tracer (5 nM [^3H]-estrone), and the potential inhibitor at concentrations 1 μM or 0.1 μM. Inhibitor stock solutions were prepared in DMSO. Final concentration of DMSO was adjusted to 1% in all samples. During a 30-minute incubation part of the estrone is converted to estradiol. The reaction is stopped by lowering the pH to 1 with 10% trichloro acetic acid (TCA). The substrate and conversion products are analyzed by HPLC and a Scintillation counter analyzer. Total radioactivity for estrone and estradiol were determined in each sample and percent conversion of estrone to estradiol was calculated according to the following formula:
% conversion=100×{(cpm estradiol in sample with inhibitor)/[(cpm estrone in sample with inhibitor)+(cpm estradiol in sample with inhibitor)]}/{(cpm estradiol in sample without inhibitor)/[(cpm estrone in sample without inhibitor)+(cpm estradiol in sample without inhibitor)]}.
as §1

[3] = biological target: T2, recombinant human 17β-HSD1 (Homo sapiens, UniProt P14061); test: Inhibition of recombinant human 17β-HSD1 (estrone to estradiol conversion, HPLC/radioactivity); details: compound 100 nM; 30 nM estrone, 1 mM NADPH, 30 min RT
T2 construct: made in house; host or cells: Sd9 (Sf9) insect cells, baculovirus (Bac to Bac Expression System)
T2 sequence (P14061 1-328): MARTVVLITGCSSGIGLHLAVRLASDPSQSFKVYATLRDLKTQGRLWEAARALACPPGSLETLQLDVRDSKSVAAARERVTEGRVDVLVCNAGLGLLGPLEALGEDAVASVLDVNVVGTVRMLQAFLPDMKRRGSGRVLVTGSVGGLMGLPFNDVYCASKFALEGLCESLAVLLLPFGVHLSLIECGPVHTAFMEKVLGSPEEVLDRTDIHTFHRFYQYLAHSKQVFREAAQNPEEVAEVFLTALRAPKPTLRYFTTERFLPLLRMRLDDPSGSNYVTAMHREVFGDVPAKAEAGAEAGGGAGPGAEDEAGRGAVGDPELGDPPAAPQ
Experimental: 17β-HSD1 production and isolation: Recombinant baculovirus was generated by the “Bac to Bac Expression System” (Invitrogen). Recombinant bacmid was transfected to Sd9 insect cells using “Cellfectin Reagent” (Invitrogen). 60 h later cells were harvested; the microsomal fraction was isolated as described by Puranen, T. J., Poutanen, M. H., Peltoketo, H. E., Vihko, P. T. and Vihko, R. K. (1994) Site-directed mutagenesis of the putative active site of human 17 β-hydroxysteroid dehydrogenase type 1. Biochem. J. 304: 289-293. Aliquots were stored frozen until determination of enzymatic activity.
Assay—Inhibition of recombinant human 17β-HSD1: Recombinant protein (1 μg/ml) was incubated in 20 mM KH2PO4 pH 7.4 with 30 nM estrone (including 800 000 cpm/ml of ^3H-estrone) and 1 mM NADPH for 30 min at RT, in the presence of the potential inhibitor at concentrations 1 μM or 0.1 μM. Inhibitor stock solutions were prepared in DMSO. Final concentration of DMSO was adjusted to 1% in all samples. The enzyme reaction was stopped by addition of 10% trichloroacetic acid (final concentration). Samples were centrifuged in a microtiter plate at 4000 rpm for 10 min. Supernatants were applied to reverse phase HPLC on a Waters Symmetry C18 column, equipped with a Waters Sentry Guard column. Isocratic HPLC runs were performed at RT at a flow rate of 1 ml/min in acetonitrile:water 48:52 as running solvent. Radioactivity was monitored in the eluate by a Scintillation Analyzer. Total radioactivity for estrone and estradiol were determined in each sample and percent conversion of estrone to estradiol was calculated according to the following formula:
% conversion=100×{(cpm estradiol in sample with inhibitor)/[(cpm estrone in sample with inhibitor)+(cpm estradiol in sample with inhibitor)]}/{[(cpm estradiol in sample without inhibitor)/[(cpm estrone in sample without inhibitor)+(cpm estradiol in sample without inhibitor)]}.
as §1

C[C@]12CCC3c4ccc(F)cc4CCC3C1[C@H](CCC(=O)Nc1cnccn1)c1c[nH]nc12 (stereo partly drawn) [Compound 120, 3-((8aS,12S)-4-fluoro-8a-methyl-1,2,6b,7,8,8a,10,12,12a,12b-decahydronaphtho[2′,1′:4,5]indeno[1,2-c]pyrazol-12-yl)-N-(pyrazin-2-yl)propanamide]
inhibition at 1 µM [1]: 4%
Rabbit placenta inhibition % @100 nM [2]: 34%
inhibition at 0.1 µM [3]: 67%

C[C@]12CCC3c4ccc(Cl)cc4CCC3C1[C@H](CCC(=O)Nc1cc(F)ccn1)c1c[nH]nc12 (stereo partly drawn) [Compound 129, 3-((8aS,12S)-4-chloro-8a-methyl-1,2,6b,7,8,8a,10,12,12a,12b-decahydronaphtho[2′1′:4,5]indeno[1,2-c]pyrazol-12-yl)-N-(4-fluoropyridin-2-yl)propanamide]
inhibition at 1 µM [1]: 8%
Rabbit placenta inhibition % @100 nM [2]: 28%
inhibition at 0.1 µM [3]: 84%

C[C@]12CCC3c4ccc(Cl)cc4CCC3C1[C@H](CCC(=O)Nc1cccc(F)n1)c1c[nH]nc12 (stereo partly drawn) [Compound 135, 3-((8aS,12S)-4-chloro-8a-methyl-1,2,6b,7,8,8a,10,12,12a,12b-decahydronaphtho[2,1′:4,5]indeno[1,2-c]pyrazol-12-yl)-N-(6-fluoropyridin-2-yl)propanamide]
inhibition at 1 µM [1]: 2%
Rabbit placenta inhibition % @100 nM [2]: 31%
inhibition at 0.1 µM [3]: 86%

C[C@]12CCC3c4ccccc4CCC3C1[C@H](CCC(=O)NC1CCOCC1)c1c[nH]nc12 (stereo partly drawn) [Compound 153, 3-((8aS,12S)-8a-methyl-1,2,6b,7,8,8a,10,12,12a,12b-decahydronaphtho[2′,1′:4,5]indeno[1,2-c]pyrazol-12-yl)-N-(tetrahydro-2H-pyran-4-yl)propanamide]
inhibition at 1 µM [1]: 4%
Rabbit placenta inhibition % @100 nM [2]: 10%
inhibition at 0.1 µM [3]: 85%

CN(CC1CC1)C(=O)CC[C@@H]1c2c[nH]nc2[C@@]2(C)CCC3c4ccccc4CCC3C12 (stereo partly drawn) [Compound 174, N-(cyclopropylmethyl)-N-methyl-3-((8aS,12S)-8a-methyl-1,2,6b,7,8,8a,10,12,12a,12b-decahydronaphtho[2′,1′:4,5]indeno[1,2-c]pyrazol-12-yl)propanamide]
inhibition at 1 µM [1]: 10%
Rabbit placenta inhibition % @100 nM [2]: 14%
inhibition at 0.1 µM [3]: 88%

C[C@]12CCC3c4ccccc4CCC3C1[C@H](CCC(=O)N1CCC3(CCOCC3)C1)c1c[nH]nc12 (stereo partly drawn) [Compound 177, 3-((8aS,12S)-8a-methyl-1,2,6b,7,8,8a,10,12,12a,12b-decahydronaphtho[2′,1′:4,5]indeno[1,2-c]pyrazol-12-yl)-1-(8-oxa-2-azaspiro[4.5]decan-2-yl)propan-1-one]
inhibition at 1 µM [1]: 4%
Rabbit placenta inhibition % @100 nM [2]: 16%
inhibition at 0.1 µM [3]: 89%

C[C@]12CCC3c4ccccc4CCC3C1[C@H](CCC(=O)N1Cc3ccccc3C1)c1c[nH]nc12 (stereo partly drawn) [Compound 180, 1-(isoindolin-2-yl)-3-((8aS,12S)-8a-methyl-1,2,6b,7,8,8a,10,12,12a,12b-decahydronaphtho[2′,1′:4,5]indeno[1,2-c]pyrazol-12-yl)propan-1-one]
inhibition at 1 µM [1]: 12%
Rabbit placenta inhibition % @100 nM [2]: 14%
inhibition at 0.1 µM [3]: 92%

CN(C)C(=O)c1ccc(NC(=O)CC[C@@H]2c3c[nH]nc3[C@@]3(C)CCC4c5ccccc5CCC4C23)nc1 (stereo partly drawn) [Compound 183, N,N-dimethyl-6-(3-((8aS,12S)-8a-methyl-1,2,6b,7,8,8a,10,12,12a,12b-decahydronaphtho[2′,1′:4,5]indeno[1,2-c]pyrazol-12-yl)propanamido)nicotinamide]
inhibition at 1 µM [1]: 10%
Rabbit placenta inhibition % @100 nM [2]: 50%
inhibition at 0.1 µM [3]: 91%

Cn1ccc(NC(=O)CC[C@@H]2c3c[nH]nc3[C@@]3(C)CCC4c5ccccc5CCC4C23)n1 (stereo partly drawn) [Compound 186, 3-((8aS,12S)-8a-methyl-1,2,6b,7,8,8a,10,12,12a,12b-decahydronaphtho[2′,1′:4,5]indeno[1,2-c]pyrazol-12-yl)-N-(1-methyl-1H-pyrazol-3-yl)propanamide]
inhibition at 1 µM [1]: 1%
Rabbit placenta inhibition % @100 nM [2]: 11%
inhibition at 0.1 µM [3]: 81%

C[C@]12CCC3c4ccccc4CCC3C1[C@H](CCC(=O)NC1CCC1)c1c[nH]nc12 (stereo partly drawn) [Compound 192, N-cyclobutyl-3-((8aS,12S)-8a-methyl-1,2,6b,7,8,8a,10,12,12a,12b-decahydronaphtho[2′,1′:4,5]indeno[1,2-c]pyrazol-12-yl)propanamide]
inhibition at 1 µM [1]: 2%
Rabbit placenta inhibition % @100 nM [2]: 14%
inhibition at 0.1 µM [3]: 86%

Reference: patent US20220041647A1, “ESTRA-1,3,5(10)-TRIENE COMPOUNDS CONDENSED IN POSITION 16(17) WITH A PYRAZOLE RING AS INHIBITORS OF 17-HSD1” (FORENDO PHARMA LTD, priority 2018, published 2022)
